{"source": "patent US8703749B2", "about": "“Compositions and methods for treating Friedreich's Ataxia” (priority 2009, dated 2014)", "key": {"[1]": {"system": "FRDA fibroblasts GM03816", "experiment": "Intracellular ATP content in FRDA fibroblasts", "format": "cell-based, human", "details": "100 μM, 3 days", "method": "FRDA lymphoblasts and fibroblasts were washed twice with ice-cold Dulbecco's Phosphate Buffered Saline (DPBS) and lysed in CelLytic M buffer (Sigma-Aldrich) supplemented with Complete protease inhibitor cocktail, EDTA-free (Roche). Aconitase activity was measured spectrophotometrically at 340 nm by a coupled reaction of aconitase and isocitrate dehydrogenase. The assay reactions contained […] of cell extract in 50 mM Hepes pH 7.4, 1 mM sodium citrate, 0.6 mM MnCl2, 0.2 mM NADP^+ and 2 U/ml isocitrate dehydrogenase (Sigma-Aldrich). Citrate synthase activity was assessed using […] of cell extract with the Citrate Synthase Assay Kit (Sigma-Aldrich CS0720). […] The intracellular ATP content was measured in black microtiter plates using […] of cell extract with the ATP Bioluminescence Assay Kit CLS II (Roche) according to the manufacturer's protocol.\nFRDA fibroblasts GM03816 were treated for 3 days with 100 μM Formula IV. Cells were then fixed, stained with anti-frataxin antibody or anti-Bcl2, as a control, and analyzed by flow cytometry. […] Total cell extracts were resolved on SDS-PAGE and analyzed with anti-frataxin antibody, or anti-tubulin, as a loading control. […] ATP levels were quantitated as described previously."}, "[2]": {"target": "T1, frataxin (Homo sapiens, UniProt Q16595)", "T1 sequence (Q16595 42-210)": "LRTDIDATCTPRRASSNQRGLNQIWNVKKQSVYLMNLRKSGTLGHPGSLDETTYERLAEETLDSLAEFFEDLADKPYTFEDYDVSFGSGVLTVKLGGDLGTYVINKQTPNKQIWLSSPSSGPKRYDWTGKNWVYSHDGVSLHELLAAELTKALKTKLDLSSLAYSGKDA", "experiment": "Frataxin accumulation in HEK-293 Flp-In cells stably expressing frataxin 1-210 (WB, FACS)", "format": "cell-based", "parameters": "HEK-293 Flp-In cells stably transfected with frataxin^1-210; expressed in transfected cells", "details": "HEK-293 Flp-In frataxin 1-210; 100 μM; 18 hours", "method": "(§1) Human embryonic kidney HEK-293 cells and Hela cells were maintained in DMEM supplemented with 10% FBS. HEK-293 were transfected with the calcium/phosphate precipitation method, using 20 μg total DNA (10 μg pIRES-frataxin and 10 μg HA-Ub, or corresponding empty vectors) on 10 cm dishes. Hela cells were transfected using Lipofectamine 2000 reagents (Invitrogen), according to manufacturer's instructions. Where indicated, the day after transfection, cells were treated for 16 h with 10 μM proteasome inhibitors, MG132 or Lactacystin, or 50 ng/ml DUB inhibitor Ubiquitin-Aldehyde. Flp-In-HEK-293 cells (Invitrogen) are HEK-293 variants allowing the stable and isogenic integration and expression of a transfected gene. Flp-In-HEK-293 cells were maintained in DMEM supplemented with 10% FBS and transfected with the calcium/phosphate precipitation method. Briefly, cells were plated on 10 cm dishes and transfected with 10 μg total DNA. The HEK-293 clone stably expressing frataxin^1-210 was previously described (4). The HEK-293 clone stably expressing frataxin^K147R was obtained from cultures in selection medium containing 100 μg/ml hygromycin B (Invitrogen). FRDA lymphoblasts GM15850, GM16798 and GM16241, as well control lymphoblasts GM15851, GM16241 and GM16215, were maintained in RPMI supplemented with 15% FBS. Treatments with specific ubiquitin-competing molecules were performed in 20% FBS containing medium. FRDA fibroblasts GM03816 were maintained in DMEM supplemented with 15% FBS.\nCell extracts were prepared in modified RIPA buffer (10 mM sodium phosphate pH7.2, 150 mM NaCl, 1% Na deoxycholate, 0.1% SDS, 1% Np40, 2 mM EDTA) or IP buffer (50 mM Tris-HCl, pH 7.5, 150 mM NaCl, 1% Nonidet P-40, 5 mM EDTA, 5 mM EGTA) supplemented with Complete protease inhibitor cocktail and 2 mM N-Ethylmaleimide (NEM). For immunoblotting, 100 μg of protein extract were separated on 12% SDS-PAGE, blotted onto nitrocellulose membrane and detected with specific antibodies. For in vivo detection of ubiquitin-conjugates […] and 50 ng/ml Ubiquitin-Aldehyde were added to the lysis buffer. For immunoprecipitation, 5 mg of total protein extract prepared as above were incubated for 1-2 h at 4° C. with specific antibodies, previously conjugated to Protein G-sepharose (GE Healthcare). Immunocomplexes were then resolved and analysed by SDS-PAGE. […] Densitometric analysis was performed using ImageJ software.\nCells were collected after the indicated treatments and fixed for 20 minutes in 4% paraformaldehyde at room temperature. Cells were then permeabilized and blocked in a blocking solution (3% FBS in PBS) containing 0.2% Triton, for 1 hour at room temperature. Cells were then incubated overnight at 4° C. with anti-frataxin monoclonal antibody (MAB-10485, Immunological Science) or anti-Bcl2 monoclonal antibody (sc-509, Santa Cruz) diluted 1:200 in blocking solution. Cells were then washed 3 times in PBS and incubated for 1 hour at room temperature with FITC-conjugated goat anti-mouse IgG/IgM (BD Bioscience Pharmingen) diluted 1:200 in blocking solution. After washing 3 times with PBS cells were analyzed by flow cytometry (Becton Dickinson).\nHEK-293 Flp-In cells stably transfected with frataxin^1-210 were treated for the indicated times with 10 μM MG132. Total cell extracts were blotted as in A. One representative experiment out of four performed with similar results is shown in FIG. 18.\nFormula III induces frataxin precursor accumulation. HEK-293 Flp-In cells stably expressing frataxin^1-210 were treated for the indicated days with 20 μM of Formula III or 10 μM MG132. Total cell extracts were resolved on SDS-PAGE and analyzed with anti-frataxin antibody, or anti-tubulin, as a loading control.\nFormula III induces mature frataxin accumulation. HEK-293 Flp-In cells stably expressing frataxin^1-210 were treated and analyzed as in B. One representative experiment out of three performed with similar results is shown FIG. 5C. […]"}, "[3]": {"system": "aconitase", "experiment": "Aconitase assay in FRDA lymphoblasts", "format": "cell-based, human", "details": "FRDA lymphoblasts GM16798; 50 μM; 6 days", "method": "(§2) FRDA lymphoblasts and fibroblasts were washed twice with ice-cold Dulbecco's Phosphate Buffered Saline (DPBS) and lysed in CelLytic M buffer (Sigma-Aldrich) supplemented with Complete protease inhibitor cocktail, EDTA-free (Roche). Aconitase activity was measured spectrophotometrically at 340 nm by a coupled reaction of aconitase and isocitrate dehydrogenase. The assay reactions contained […] of cell extract in 50 mM Hepes pH 7.4, 1 mM sodium citrate, 0.6 mM MnCl2, 0.2 mM NADP^+ and 2 U/ml isocitrate dehydrogenase (Sigma-Aldrich). Citrate synthase activity was assessed using […] of cell extract with the Citrate Synthase Assay Kit (Sigma-Aldrich CS0720). The aconitase activities were normalized with respect to citrate synthase ratios; one milliunit of enzyme was defined as the amount of protein that converted 1 nmol of NADP^+ in 1 min at 25° C. The intracellular ATP content was measured in black microtiter plates using […] of cell extract with the ATP Bioluminescence Assay Kit CLS II (Roche) according to the manufacturer's protocol.\n(§3) FRDA lymphoblasts GM16798 were left untreated or treated for 6 days with 50 μM Formula IV. Their genetically-related healthy control GM16241 lymphoblasts were left untreated. […] Aconitase activity and ATP levels were measured as described previously."}, "[4]": {"system": "FRDA lymphoblasts GM16798", "experiment": "Intracellular ATP content in FRDA lymphoblasts", "format": "cell-based, human", "details": "50 μM, 6 days", "method": "as §2, §3"}, "[5]": {"target": "T1, frataxin", "experiment": "Frataxin accumulation in FRDA lymphoblasts (FACS, SDS-PAGE/western blot)", "format": "cell-based", "details": "50 μM, 6 days", "method": "as §1, with “The HEK-293 clone stably expressing frataxin^K147R was obtained from cultures in selection medium containing 100 μg/ml hygromycin B (Invitrogen). FRDA lymphoblasts GM15850, GM16798 and GM16241, as well control lymphoblasts GM15851, GM16241 and GM16215, were maintained in RPMI supplemented with 15% FBS. Treatments with specific ubiquitin-competing molecules were performed in 20% FBS containing medium. FRDA fibroblasts GM03816 were maintained in DMEM supplemented with 15% FBS.” left out\n(§4) Cell extracts were prepared in modified RIPA buffer (10 mM sodium phosphate pH7.2, 150 mM NaCl, 1% Na deoxycholate, 0.1% SDS, 1% Np40, 2 mM EDTA) or IP buffer (50 mM Tris-HCl, pH 7.5, 150 mM NaCl, 1% Nonidet P-40, 5 mM EDTA, 5 mM EGTA) supplemented with Complete protease inhibitor cocktail and 2 mM N-Ethylmaleimide (NEM). For immunoblotting, 100 μg of protein extract were separated on 12% SDS-PAGE, blotted onto nitrocellulose membrane and detected with specific antibodies. […] Immunocomplexes were then resolved and analysed by SDS-PAGE. […]\nCells were collected after the indicated treatments and fixed for 20 minutes in 4% paraformaldehyde at room temperature. […] After washing 3 times with PBS cells were analyzed by flow cytometry (Becton Dickinson).\nFRDA lymphoblasts GM15850 were cultured for 6 days in the presence of 50 μM Formula IV or Formula VI. Cells were then fixed, stained with anti-frataxin antibody or anti-Bcl2, as a control, and analyzed by flow cytometry. […]"}, "[6]": {"system": "FRDA cells", "experiment": "Tolerability by FRDA cells", "format": "cell-based, human", "details": "among the different ubiquitin-competing molecules"}, "[7]": {"target": "T1, frataxin", "experiment": "Frataxin accumulation in FRDA fibroblasts (FACS, SDS-PAGE/western blot)", "format": "cell-based", "parameters": "HEK-293 Flp-In cells stably transfected with frataxin^1-210; expressed in transfected cells", "details": "FRDA fibroblasts GM03816; 100 μM; 3 days", "method": "Human embryonic kidney HEK-293 cells and Hela cells were maintained in DMEM supplemented with 10% FBS. HEK-293 were transfected with the calcium/phosphate precipitation method, using 20 μg total DNA (10 μg pIRES-frataxin and 10 μg HA-Ub, or corresponding empty vectors) on 10 cm dishes. Hela cells were transfected using Lipofectamine 2000 reagents (Invitrogen), according to manufacturer's instructions. Where indicated, the day after transfection, cells were treated for 16 h with 10 μM proteasome inhibitors, MG132 or Lactacystin, or 50 ng/ml DUB inhibitor Ubiquitin-Aldehyde. […]\nas §4\nCells were collected after the indicated treatments and fixed for 20 minutes in 4% paraformaldehyde at room temperature. […] After washing 3 times with PBS cells were analyzed by flow cytometry (Becton Dickinson). […]"}}}
{"molecule": "O=[N+]([O-])c1cccc(/C=N/NS(=O)(=O)c2ccc(Cl)cc2)c1O", "note": "[Formula IV]", "values": [{"measurement": "ATP levels", "setting": "[1]", "result": "Rescue of ATP levels can also be achieved"}, {"measurement": "frataxin accumulation by WB and FACS analysis", "setting": "[2]", "result": "effective in inducing frataxin accumulation"}, {"measurement": "aconitase activity", "setting": "[3]", "result": "significantly boost"}, {"measurement": "ATP levels", "setting": "[4]", "result": "significantly boost"}, {"measurement": "accumulation of mature frataxin by SDS-PAGE and western blot", "setting": "[5]; FRDA lymphoblasts GM15850, GM16798 and GM16214", "result": "accumulation of mature frataxin can be detected"}, {"measurement": "frataxin accumulation by FACS analysis", "setting": "[5]; FRDA lymphoblasts GM15850", "result": "discrete frataxin accumulation detectable in all cells"}, {"measurement": "tolerability by FRDA cells", "setting": "[6]", "result": "best tolerated"}, {"measurement": "frataxin accumulation by FACS and SDS-PAGE/western blot", "setting": "[7]", "result": "frataxin accumulation can be detected as early as 3 days of treatment"}]}
